These results are taken from US7422886B2, “Method for determining modulation of P110Δ activity” (Ludwig Institute for Cancer Research, priority 1996, dated 2008).

For one test, the target named is p110δ/p85α (Homo sapiens, UniProt O00329, S675R). Nature of the test: Lipid kinase assay of drug effects on p110δ/p85α. Format: biochemical. Conditions: PtdIns substrate, 40 μM ATP, 10 min at 25° C., 1% DMSO; read-out: IC50, inhibition of lipid kinase activity. How it is done: (§1) Lipid kinase activity was performed essentially as described by Whitman et al. (1985). Lipid kinase assay buffer was 20 mM Tris HCl pH 7.4, 100 mM NaCl and 0.5 mM EGTA. Lipids were purchased from Sigma. The final concentration of ATP and Mg^2+ in the assay were routinely 0.5 and 3.5 mM, respectively, while lipids were used at 0.2-0.4 mM concentration. Unless otherwise indicated, kinase reaction was for 10 min at 37° C. The solvent for TLC separation of reaction products was propan-1-ol/2 M acetic acid/5 M H3PO4 (65:35:1). Assays of drug effects on the kinase were performed using PtdIns as substrate in the presence of 40 μM ATP (final) for 10 min at 25° C.; all tubes contained 1% DMSO. Activity was quantified by phosphorimager (Molecular Dynamics) analysis of TLC-separated lipid products.
Chain of p110δ/p85α (O00329 whole entry S675R): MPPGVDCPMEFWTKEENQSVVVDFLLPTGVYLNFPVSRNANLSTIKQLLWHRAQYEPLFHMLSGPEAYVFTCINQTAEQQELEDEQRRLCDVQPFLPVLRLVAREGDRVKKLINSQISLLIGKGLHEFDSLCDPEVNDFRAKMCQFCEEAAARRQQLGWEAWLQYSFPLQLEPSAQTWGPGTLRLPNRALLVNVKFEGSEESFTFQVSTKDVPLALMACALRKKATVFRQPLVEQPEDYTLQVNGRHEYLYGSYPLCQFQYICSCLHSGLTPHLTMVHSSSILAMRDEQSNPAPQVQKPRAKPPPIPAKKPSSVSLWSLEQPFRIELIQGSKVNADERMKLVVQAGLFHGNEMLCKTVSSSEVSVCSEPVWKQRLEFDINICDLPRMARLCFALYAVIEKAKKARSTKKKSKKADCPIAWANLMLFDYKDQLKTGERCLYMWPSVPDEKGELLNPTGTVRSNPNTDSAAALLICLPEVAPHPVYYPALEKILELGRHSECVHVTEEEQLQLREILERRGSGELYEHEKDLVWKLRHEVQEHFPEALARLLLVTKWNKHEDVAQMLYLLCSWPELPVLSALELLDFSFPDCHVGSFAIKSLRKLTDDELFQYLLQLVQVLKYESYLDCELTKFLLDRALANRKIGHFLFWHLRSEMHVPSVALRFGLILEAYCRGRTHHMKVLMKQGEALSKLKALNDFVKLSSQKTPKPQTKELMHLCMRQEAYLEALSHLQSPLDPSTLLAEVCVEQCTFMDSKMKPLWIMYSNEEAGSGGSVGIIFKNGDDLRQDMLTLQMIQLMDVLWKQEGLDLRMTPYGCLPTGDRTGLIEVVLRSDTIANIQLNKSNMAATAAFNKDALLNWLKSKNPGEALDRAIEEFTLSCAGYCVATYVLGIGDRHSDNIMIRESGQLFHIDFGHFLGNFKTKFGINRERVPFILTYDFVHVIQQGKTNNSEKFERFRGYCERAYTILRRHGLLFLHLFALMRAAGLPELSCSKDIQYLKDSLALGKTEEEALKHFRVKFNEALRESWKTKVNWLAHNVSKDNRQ
Chain of p110δ/p85α (P27986 whole entry partner): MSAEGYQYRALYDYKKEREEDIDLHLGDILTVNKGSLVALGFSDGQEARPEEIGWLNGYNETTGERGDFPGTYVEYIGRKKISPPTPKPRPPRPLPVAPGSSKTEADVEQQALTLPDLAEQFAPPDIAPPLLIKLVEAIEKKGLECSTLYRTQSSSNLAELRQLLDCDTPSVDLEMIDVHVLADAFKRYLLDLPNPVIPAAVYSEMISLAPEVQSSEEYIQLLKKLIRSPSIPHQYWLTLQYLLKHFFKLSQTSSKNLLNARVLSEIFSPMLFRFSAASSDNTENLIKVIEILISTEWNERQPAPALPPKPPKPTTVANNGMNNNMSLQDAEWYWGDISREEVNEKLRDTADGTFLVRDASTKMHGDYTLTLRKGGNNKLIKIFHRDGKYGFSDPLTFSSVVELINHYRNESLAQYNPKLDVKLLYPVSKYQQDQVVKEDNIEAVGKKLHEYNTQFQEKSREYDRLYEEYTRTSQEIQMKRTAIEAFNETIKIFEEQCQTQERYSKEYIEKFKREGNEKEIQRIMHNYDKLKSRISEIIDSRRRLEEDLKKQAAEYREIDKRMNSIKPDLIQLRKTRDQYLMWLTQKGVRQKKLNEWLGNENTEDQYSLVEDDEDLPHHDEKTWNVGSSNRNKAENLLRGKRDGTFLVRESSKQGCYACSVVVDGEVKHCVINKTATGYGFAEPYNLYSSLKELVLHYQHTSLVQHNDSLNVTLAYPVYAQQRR

Another test deals with p110α/p85α (Bos taurus, UniProt P32871). Nature of the test: Lipid kinase assay of drug effects on p110α/p85α. It counts as biochemical. The protocol: as §1
Chain of p110α/p85α (P32871 whole entry): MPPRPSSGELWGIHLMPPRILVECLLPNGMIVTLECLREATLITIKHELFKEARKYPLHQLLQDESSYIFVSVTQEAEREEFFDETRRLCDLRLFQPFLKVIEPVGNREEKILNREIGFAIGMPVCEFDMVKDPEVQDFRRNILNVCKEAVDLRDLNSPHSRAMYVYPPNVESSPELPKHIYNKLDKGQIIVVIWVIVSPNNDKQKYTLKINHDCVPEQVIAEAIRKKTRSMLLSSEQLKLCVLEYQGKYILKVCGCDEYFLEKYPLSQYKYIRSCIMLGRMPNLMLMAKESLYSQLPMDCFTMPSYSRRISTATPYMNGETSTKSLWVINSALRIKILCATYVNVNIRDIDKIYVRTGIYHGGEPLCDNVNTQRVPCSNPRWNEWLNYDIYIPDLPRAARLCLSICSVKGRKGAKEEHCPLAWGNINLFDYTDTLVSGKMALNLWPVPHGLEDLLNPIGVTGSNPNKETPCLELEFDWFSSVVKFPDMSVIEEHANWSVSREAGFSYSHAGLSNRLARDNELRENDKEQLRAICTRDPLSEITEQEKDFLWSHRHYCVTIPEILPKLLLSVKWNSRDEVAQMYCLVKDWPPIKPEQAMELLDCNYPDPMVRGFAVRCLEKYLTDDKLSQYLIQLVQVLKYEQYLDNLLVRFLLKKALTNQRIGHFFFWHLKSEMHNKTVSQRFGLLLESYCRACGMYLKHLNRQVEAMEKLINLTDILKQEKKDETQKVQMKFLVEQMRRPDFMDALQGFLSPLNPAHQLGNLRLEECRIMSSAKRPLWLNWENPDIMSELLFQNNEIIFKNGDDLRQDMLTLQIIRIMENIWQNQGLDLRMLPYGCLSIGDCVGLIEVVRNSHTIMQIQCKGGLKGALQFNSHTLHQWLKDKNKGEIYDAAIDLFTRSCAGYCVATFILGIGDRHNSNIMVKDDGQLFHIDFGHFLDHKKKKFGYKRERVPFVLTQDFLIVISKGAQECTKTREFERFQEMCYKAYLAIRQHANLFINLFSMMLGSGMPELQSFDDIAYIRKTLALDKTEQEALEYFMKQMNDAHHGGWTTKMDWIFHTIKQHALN

The IC50 is the concentration that inhibits the measured activity by half. For `O=c1cc(N2CCOCC2)oc2c(-c3ccccc3)cccc12` [LY294002], the IC50 on p110δ/p85α amounted to 500 nM.

At p110α/p85α, `COC[C@H]1OC(=O)c2coc3c2[C@@]1(C)C1=C(C3=O)[C@@H]2CCC(=O)[C@@]2(C)C[C@H]1OC(C)=O` [wortmannin] displayed a half-maximal inhibitory concentration (IC50) of 5 nM.
